Results reported in publication PMC4640650 (Science Advances, 2015).

Molecular target: ATP synthase c-subunit (c9 rotor ring) (Mycolicibacterium phlei, UniProt A0A5N5V239)
Experiment: X-ray cocrystal structure
Assay type: binding

## COc1nc2ccc(Br)cc2cc1[C@@H](c1ccccc1)[C@@](O)(CCN(C)C)c1cccc2ccccc12 [BDQ, Bedaquiline]
  IC50: 20 to 25 nM
